Measured values from patent US20090326007A1, “Compounds and methods for modulating sir2 protein activity” (priority 2007, published 2009).
Entries after “also recorded” stand apart in the source; their conditions may differ. Like-named read-outs stand apart in the source and are kept apart here. *1 amine or outer side, *2 acyl side, *3 side chain or, on linkers, in order; H or OH if unused. Where a SMILES comes first, the peptide text is derived from it. Bridges are numbered along the chain shown (N, C = ends). [ ]: non-standard residue; d: D form. X1 = CC(C)CCCCCCCCC[C@H](CC(=O)[*:1])O[*:2]

Experiments:
Hst2 [1] = target: T1, Hst2 (Saccharomyces cerevisiae, UniProt P53686); assay: IC50 determination, fluorigenic deacetylase assay, Hst2
T1 sequence (P53686 1-294): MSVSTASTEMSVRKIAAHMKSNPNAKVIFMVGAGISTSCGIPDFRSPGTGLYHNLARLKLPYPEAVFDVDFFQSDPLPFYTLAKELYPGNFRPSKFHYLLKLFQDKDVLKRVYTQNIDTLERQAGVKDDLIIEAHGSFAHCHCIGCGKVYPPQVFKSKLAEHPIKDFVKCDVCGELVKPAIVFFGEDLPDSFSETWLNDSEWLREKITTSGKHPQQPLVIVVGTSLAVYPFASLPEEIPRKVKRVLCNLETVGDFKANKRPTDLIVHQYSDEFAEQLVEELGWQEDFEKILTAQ
Protocol: (§1) IC50 Determination. […] The dose-response curves were then fit to one-site competition or sigmoidal-dose response curves as appropriate in [sequence] PRISM (GraphPad Software, La Jolla, Calif.) and the IC50 was determined. Three independent IC50 measurements were performed for each compound and the average and standard deviation are reported.
The resulting deacetylase activity for the three experiments was averaged and reported as a percentage relative to control wells containing no inhibitor.

Hst2 [2] = target: T1, Hst2; assay: SAR analysis, fluorigenic assay at 50 and 500 μM; format: biochemical; conditions: for inhibition of the Hst2 deacetylase reaction by metal ions (in words): FIG. 2, 50 μM and 500 μM compound
Description: Structure Activity Relationship (SAR) Analysis.

human SIRT3 = target: T2, human SIRT3 (Homo sapiens, UniProt Q9NTG7); assay: Inhibition assay against human SIRT3 (fluorigenic); conditions: for remaining activity at 50 µM: read-out: percent of residual enzyme activity, SIRT3
T2 sequence (Q9NTG7 1-399): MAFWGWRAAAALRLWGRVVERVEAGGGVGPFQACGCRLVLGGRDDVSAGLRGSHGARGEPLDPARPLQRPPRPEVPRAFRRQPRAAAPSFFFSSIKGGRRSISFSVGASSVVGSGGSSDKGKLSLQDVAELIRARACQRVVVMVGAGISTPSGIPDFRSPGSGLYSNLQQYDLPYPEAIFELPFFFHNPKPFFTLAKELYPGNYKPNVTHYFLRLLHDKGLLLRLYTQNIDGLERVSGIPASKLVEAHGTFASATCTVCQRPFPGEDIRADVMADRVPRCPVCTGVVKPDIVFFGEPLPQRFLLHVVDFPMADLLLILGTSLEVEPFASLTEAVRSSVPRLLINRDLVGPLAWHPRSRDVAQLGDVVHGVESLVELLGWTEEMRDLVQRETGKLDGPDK
Protocol: (§2) Human recombinant SIRT3 was purchased from Enzo Life Sciences.
(§3) Inhibition Assay Against Human SIRT2 and SIRT3. […] Two independent measurements were performed for each compound and the average and standard deviation are reported.

full-length human SIRT1 = target: T3, full-length human SIRT1 (Homo sapiens, UniProt Q96EB6); assay: IC50 determination, fluorigenic deacetylase assay, FL SIRT1
T3 sequence (Q96EB6 1-747): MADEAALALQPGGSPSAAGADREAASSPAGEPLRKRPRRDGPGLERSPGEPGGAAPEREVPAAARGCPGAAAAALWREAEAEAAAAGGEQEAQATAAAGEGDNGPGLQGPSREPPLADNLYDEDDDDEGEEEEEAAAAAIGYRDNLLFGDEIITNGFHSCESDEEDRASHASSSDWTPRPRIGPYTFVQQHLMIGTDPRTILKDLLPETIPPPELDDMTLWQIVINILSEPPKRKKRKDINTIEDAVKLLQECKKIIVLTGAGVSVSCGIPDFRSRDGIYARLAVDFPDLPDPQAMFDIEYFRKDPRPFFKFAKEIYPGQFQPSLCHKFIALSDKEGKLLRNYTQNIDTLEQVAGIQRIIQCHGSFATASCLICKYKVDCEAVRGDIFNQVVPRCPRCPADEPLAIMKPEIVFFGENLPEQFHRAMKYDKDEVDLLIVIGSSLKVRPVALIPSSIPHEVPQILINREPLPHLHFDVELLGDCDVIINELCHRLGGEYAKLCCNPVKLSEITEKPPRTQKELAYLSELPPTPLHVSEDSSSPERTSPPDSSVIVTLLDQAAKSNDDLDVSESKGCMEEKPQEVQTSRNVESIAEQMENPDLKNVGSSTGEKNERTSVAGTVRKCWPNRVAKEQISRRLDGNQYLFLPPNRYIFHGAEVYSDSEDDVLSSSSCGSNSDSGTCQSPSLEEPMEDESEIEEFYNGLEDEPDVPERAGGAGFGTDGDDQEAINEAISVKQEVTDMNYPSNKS
Protocol: Cells were harvested and lysed by sonication in buffer containing 50 mM Tris, pH 7.5, 200 mM NaCl, 5 mM imidizole, 10 mM β-mercaptoethanol (BME) and 0.1 mg/mL PMSF. Soluble FL SIRT1 was purified by Ni-NTA (Qiagen, Valencia, Calif.) in a buffer containing 50 mM Tris, pH 7.5, 300 mM NaCl, 10 mM BME, 5% glycerol and 30-600 mM imidizole followed by SUPERDEX-200 gel filtration in buffer containing 50 mM Tris, pH 7.5, 150 mM NaCl, and 10 mM BME. FL SIRT1 eluted between the 670 kDa and 158 kDa globular protein standards. Since SIRT1 is known to aggregate after several days at 4° C., the protein was aliquoted and frozen at −80° C. for use in fluorigenic assays.
as §1

human SIRT2 = target: T4, human SIRT2 (Homo sapiens, UniProt Q8IXJ6); assay: Inhibition assay against human SIRT2 (fluorigenic); conditions: for inhibitory activity against human SIRT2 (in words): 50 or 100 μM compound; for remaining activity at 50 µM: read-out: percent of residual enzyme activity, SIRT2
T4 sequence (Q8IXJ6 1-352 isoform Q8IXJ6-2): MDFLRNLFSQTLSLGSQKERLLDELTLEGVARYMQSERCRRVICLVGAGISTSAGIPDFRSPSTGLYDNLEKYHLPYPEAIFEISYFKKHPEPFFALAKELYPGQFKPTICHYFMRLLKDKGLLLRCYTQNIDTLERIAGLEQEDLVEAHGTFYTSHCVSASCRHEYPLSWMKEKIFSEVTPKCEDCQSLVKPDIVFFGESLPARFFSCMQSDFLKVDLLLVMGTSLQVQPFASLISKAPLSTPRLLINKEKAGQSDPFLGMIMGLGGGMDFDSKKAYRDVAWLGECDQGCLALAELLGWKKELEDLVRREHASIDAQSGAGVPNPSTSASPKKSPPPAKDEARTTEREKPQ
Protocol: as §2, §3

Hst2 [3] = target: T1, Hst2; assay: Competition assay (inhibition mode versus NAD+ and acetyl-lysine substrate); format: biochemical
Protocol: Competition Assay. […] The fluorigenic assay described above was used with a fixed enzyme concentration of 1 μM. When competition with NAD^+ was being tested, the FLUOR DE LYS-SIRT1 deacetylase substrate was held at a constant concentration of 100 μM and the NAD^+ was titrated from ⅓-5× KmNAD+ (5-80 μM). […] The inhibitors were titrated from ˜½-several times their estimated Ki as indicated. The reaction time was 15 minutes, and each condition was tested in duplicate. The Km, kcat and kcat/Km values were determined by direct fit of the data in SIGMAPLOT (Systat Software, Point Richmond, Calif.) to the Michealis-Menten equation. The Ki and Kis (the slope and intercept inhibition constants, respectively) and the competition type were also determined by a direct fit in SIGMAPLOT to both partial and full competitive, noncompetitive, uncompetitive and mixed competition models. Best-fit models were determined by several statistical methods including R^2, AICs and Sy.x as well as empirical evaluation of α and β values.
To determine the mechanism of inhibition of the compounds identified by HTS and to gain insight as to where these compounds may bind to the enzyme, inhibition modes were determined by varying each of the substrates with the other maintained at a fixed, saturating concentration (Table 11).

[4] = read-out: Hst2 IC50, Table 5, 160 μM NAD+, 100 μM substrate, 1 μM Hst2, 15 min
[5] = read-out: SIRT1 IC50, Table 5, 240 μM NAD+, 200 μM substrate, 1 μM FL SIRT1, 15 min
[6] = substrate NAD+ varied, acetyl-lysine substrate 100 μM
[7] = substrate NAD+ varied, read-out: Ki
[8] = substrate acetyl-lysine varied, NAD+ 160 μM
[9] = substrate acetyl-lysine varied, read-out: Ki

Question: How did the IC50 (Hst2 [1]; [4]) turn out when `Cc1ccc(C(=O)Nc2ccc(S(=O)(=O)O)c3cc(S(=O)(=O)O)cc(S(=O)(=O)O)c23)cc1NC(=O)c1cccc(NC(=O)Nc2cccc(C(=O)Nc3cc(C(=O)Nc4ccc(S(=O)(=O)O)c5cc(S(=O)(=O)O)cc(S(=O)(=O)O)c45)ccc3C)c2)c1` [Suramin (8), Suramin, reference compound] was run?
Answer: 240 ± 70 µM

Question: Which IC50 (Hst2 [1]; Table 10, Hst2) does the source give for `Nc1ccc2c(c1)C(=O)N(CCC(=O)O)C2` [Compound 42071] here?
Answer: No Inh.

Question: Which “inhibition of the Hst2 deacetylase reaction by metal ions (in words)” value (“inhibition … (in words)” below) (Hst2 [2]) does the source give for `[Fe+2]` [Fe^2+] here?
Answer: inhibited Hst2 to similar extents

Question: With `O=C(O)CCN1Cc2ccccc2C1=O` [Compound 13a, 3-(1-Oxo-1,3-dihydro-isoindol-2-yl)-propionic acid] as the compound, how does the “inhibitory activity against human SIRT3 (in words)” value (human SIRT3; 50 or 100 μM compound) read?
Answer: only weak inhibitory activity

Question: What about the remaining activity at 50 µM (human SIRT3) of the same compound?
Answer: 91 ± 4.3%

Question: And the IC50 (full-length human SIRT1; [5])?
Answer: 80 ± 5 µM

Question: What about the “inhibitory activity against human SIRT2 (in words)” value (human SIRT2) of the same compound?
Answer: only weak inhibitory activity

Question: What about the remaining activity at 50 µM (human SIRT2) of the same compound?
Answer: 89 ± 1.8%

Question: And the kcat (Hst2 [3]; substrate NAD+ varied)?
Answer: 0.0122 ± 0.00217 s⁻¹

Question: What about the “Inhibition Mechanism” value (Hst2 [3]; [6]) of the same compound?
Answer: fully non-competitive; also recorded: NC (full)

Question: And the Ki (Hst2 [3]; [7])?
Answer: 30 ± 6 µM

Question: And the kcat (Hst2 [3]; substrate acetyl-lysine varied)?
Answer: 0.0167 ± 0.0017 s⁻¹

Question: What about the “Inhibition Mechanism” value (Hst2 [3]; [8]) of the same compound?
Answer: fully non-competitive; also recorded: NC (full)

Question: What about the Ki (Hst2 [3]; [9]) of the same compound?
Answer: 39 ± 7 µM

Question: And the “IC50 values (range in words)” value (Hst2 [1]; Table 5)?
Answer: low micromolar

Question: `Cn1cc(C2=C(c3cn(CCCSC(=N)N)c4ccccc34)C(=O)NC2=O)c2ccccc21` [Ro 31-8220 (6), Ro 31-8220, reference compound] was tested. Which IC50 (Hst2 [1]; [4]) did it give?
Answer: 20 ± 0.9 µM

Question: Which IC50 (Hst2 [1]; Table 10, Hst2) does the source give for `O=C(O)CCN1C(=O)c2ccc(-c3nc4ccccc4c(=O)o3)cc2C1=O` [Compound 47054] here?
Answer: No Inh.

Question: How did the “inhibition … (in words)” value (Hst2 [2]) turn out when `[Ni+2]` [Ni^2+] was run?
Answer: inhibitors

Question: Which “inhibition … (in words)” value (Hst2 [2]) does the source give for `[Cd+2]` [Cd^2+] here?
Answer: inhibitors

Question: Which results are given for `CCc1ccc(OCCCC(=O)Oc2ccc3c(c2)oc(=O)c2ccccc23)cc1` [Compound 12a, 4-(4-Ethyl-phenoxy)-butyric acid 6-oxo-6H-benzo[c]chromen-3-yl ester]?
Answer: remaining activity at 50 µM (human SIRT3): 89 ± 3.3%; IC50 (full-length human SIRT1; [5]): 6 ± 0.4 µM; inhibitory activity against human SIRT2 (in words) (human SIRT2): potent inhibitor; remaining activity at 50 µM (human SIRT2): 2.4 ± 0.3%; activity at 50 µM (Hst2 [2]; Table 8, 50 μM compound, relative to control): < 1%; activity at 500 µM (Hst2 [2]; Table 8, 500 μM compound, relative to control, read-out: % Activity 500): < 1%; kcat (Hst2 [3]; substrate NAD+ varied): 0.025 ± 0.005 s⁻¹; Inhibition Mechanism (Hst2 [3]; [6]): fully non-competitive; also recorded: NC (full); Ki (Hst2 [3]; [7]): 1.2 ± 0.2 µM; kcat (Hst2 [3]; substrate acetyl-lysine varied): 0.0163 ± 0.00067 s⁻¹; Inhibition Mechanism (Hst2 [3]; [8]): partial non-competitive; Ki (Hst2 [3]; [9]): 6.3 ± 1.7 µM; IC50 values (range in words) (Hst2 [1]; Table 5): low micromolar; IC50 (Hst2 [1]; [4]): 6.5 ± 1.3 µM

Question: Which results are given for `CC(C)CCCCCCCCC[C@@H]1CC(=O)N[C@@H](CCC(=O)O)C(=O)N[C@@H](CC(C)C)C(=O)N[C@H](CC(C)C)C(=O)N[C@@H](C(C)C)C(=O)N[C@@H](CC(=O)O)C(=O)N[C@H](CC(C)C)C(=O)N[C@@H](CC(C)C)C(=O)O1` [Surfactin (7), Surfactin, reference compound] (EL[dL]VD[dL]L; linker N-C via X1)?
Answer: IC50 (full-length human SIRT1): > 600 µM; IC50 (Hst2 [1]): > 700 µM

Question: With `O=c1[nH]c(=S)[nH]c(-c2ccccc2)c1Cc1c(O)ccc2ccccc12` [Cambinol (4), Cambinol, reference compound] as the compound, how does the IC50 (Hst2 [1]) read?
Answer: > 1000 µM

Question: `[Ca+2]` [Ca^2+] was tested. Which “inhibition … (in words)” value (Hst2 [2]) did it give?
Answer: are not

Question: Which “inhibition … (in words)” value (Hst2 [2]) does the source give for `[Cu+]` [Cu^1+] here?
Answer: inhibited Hst2 to similar extents

Question: Which results are given for `S=c1ccccn1[O][Zn][O]n1ccccc1=S` [Compound 11b, zinc pyrithione]?
Answer: IC50 (full-length human SIRT1): 2.7 ± 0.2 µM; Ki (Hst2 [3]; Ki, substrate NAD+ varied): 0.26 ± 0.08 µM; Ki (Hst2 [3]; Ki, substrate acetyl-lysine varied): 0.7 ± 0.1 µM; kcat (Hst2 [3]; substrate NAD+ varied): 0.0145 ± 0.00083 s⁻¹; Inhibition Mechanism (Hst2 [3]; [6]): fully mixed; kcat (Hst2 [3]; substrate acetyl-lysine varied): 0.0217 ± 0.0033 s⁻¹; Inhibition Mechanism (Hst2 [3]; [8]): fully non-competitive; also recorded: NC (full); α (mixed inhibition model) (Hst2 [3]; with respect to NAD+): 2.2; IC50 (Hst2 [1]): 0.65 ± 0.05 µM; IC50 values (range in words) (Hst2 [1]): sub-micromolar
